# Counter-ions that a name gives are not always drawn. Marks after values point to notes of the source that are not given here.
# Legend:
# [1] = test system: noradrenaline pre-contracted rabbit CC; test: Direct action on penile erection: tone of corpus cavernosal muscle strips in organ bath; settings: concentration from 10^-8 M to 10^-4 M; n=6
# Description: Corpus cavernosal (CC) muscle strips were prepared from penises obtained from rabbit (n=6). CC strips were dissected free from tunica albungia and mounted in 10 or 25 mL organ baths containing Tyrode solution saturated with 95%O2/5% CO2 mixture.
# male rats [2] = test: Rat sexual behavior, proerectile actions (injected); format: in vivo, SD rats; settings: for Erections/60 minutes / Latency to the first erection: mean±sem; for Erections/60 minutes / Latency to the first erection / Responders: n=10
# Description: Male SD rats (350-450 g; n=10 per group) were injected with increasing doses of XVIb (4.0-64.0 mg/kg), XVIa (1.0, 4.0 or 16 mg/kg) or saline and observed 5 minutes later, in groups of 5, for the number of erections and the time to the first erection, over a 60 minutes observation period.
# In Table 2, the effects of XVIb, XVIa and saline on erection in male rats is indicated. Data is expressed as the mean±sem for 10 test animals. Data marked with an asterisk “*” indicate significant difference from saline (α<0.05) as determined by ANOVA with Tukey test for multiple comparisons.
# male rats [3] = test: Rat behavior, blood chemistry and body temperature; format: in vivo, SD rats
# Description: Male SD rats (350-450 g; n=15 per group) were injected with a single dose of XVIb (16 mg/kg, ip) and saline and observed 5 minutes later, in pairs, for erections, ejaculation, movement and grooming over a 60 minute observation period. Rectal temperature was recorded before drug administration and 1 hour after drug administration. At the end of experiments rats were decapitated and trunk blood was collected for RIA analysis of serum cortisol and prolactin levels.
# male rats [4] = test: Antagonism of XVIb-induced erections by comparative compounds in rats; format: in vivo, SD rats; settings: XVIb 16 mg/kg ip; n=6
# Description: Male SD rats (300-500 g; n=6 per group) were injected with (±)-Pindolol, scopolamine, haloperidol, or ketanserin, 30 minutes prior to injection of a single dose of XVIb (16 mg/kg, ip) or saline.
# male rats [5] = test: Rat procopulatory actions (copulatory behavior with receptive female); format: in vivo, Long-Evans rats
# Description: Male Long-Evans rats (300-600 g; n=15 per group) were injected with saline or XVIb (1.5-30.5 mg/kg; ip) 5 minutes prior to being paired with a female rat sexually receptive by administration of estradiol benzoate (25 μg; 48 hours prior to testing) and progesterone (1 mg/kg; 4 hours prior to testing). Mount latency, intromission latency, ejaculation latency, mounts, intromissions, ejaculations and post ejaculatory interval were recorded over a 30 minutes observation period.
# In Table 3, the effect of compound XVIb on copulatory behavior in male rats is shown. Data are expressed as mean (sem for 15 test animals). Latency is the time in seconds to appearance of that behavior. Ejaculations are the number of such events during 30 minutes of observation. Intromissions are the number of such events before ejaculation. Post ejaculatory interval is the time in seconds from ejaculation on intromission to the first mount of the next copulatory sequence. P values derived from two-tailed t-test for significance between mean values (α<0.05).
# male primates = test: Primate sexual behavior, isolated observation study; format: in vivo, Macaca fascilaris; settings: for # of behavioral Purse Lip Gesture / # of behavioral Yawning / Grade 0 (glans hidden from view) / Grade 1 (glans clearly visible) / Grade 2 (penis extended) / Grade 3 (full erection) / Grade 4 (erection with masturbation) / Grade 5 (erection with masturbation and ejaculation): isolation, 1 hour, n=6
# Description: Adult male Macaca fascilaris (3.8-8 kg, n=6) were injected (0.1-10.0 mg/kg; ip; 0.5 mL/kg body weight) with either saline or compound XVIb and observed 10 minutes later for behavioral responses and locomotion for 1 hour. Monkeys used for testing were injected and observed in separate locations remote from housing environment. Each monkey received a dose of XVIb at 72 hour intervals.
# In Table 4, the effect of compound XVIb on erectile responses is reported for male primates observed in isolation. Data are expressed as mean (sem, standard error of measurements) for 6 test animals. Penile responses were scored every 10 seconds for 1 hour according to the following scale: Grade 0=glans hidden from view, Grade 1=glans clearly visible, Grade 2=penis extended, Grade 3=full erection, Grade 4=erection with masturbation, Grade 5=erection with masturbation and ejaculation. In Table 4, data marked with an asterisk “*” indicate a significant difference from saline as determined by repeated measures ANOVA and Dunnetts test for multiple comparisons (α<0.05). The data in Table 4 are reported as % genital observations.
# [6] = 16 mg/kg ip, RIA of trunk blood at end of experiment
# [7] = 15 mg/kg ip, n=15, 30 minutes observation
smiles,measurement,setting,value
"CN1CCN(C(=O)Cc2ccc3ccccc3c2)CC1 [Compound XVIb, 1-Methyl-4(2-naphthaleneacetyl)piperazine monohydrochloride]",effect on tone of noradrenaline pre-contracted rabbit CC,[1],failed to reduce tone
same,Erections/60 minutes,male rats [2]; 4.0 mg/kg,2.1 ± 0.4
same,Latency to the first erection,male rats [2]; 4.0 mg/kg,2390 ± 238 s
same,Responders,male rats [2]; 4.0 mg/kg,100%
same,Erections/60 minutes,male rats [2]; 8.0 mg/kg,5.1 ± 0.6* #
same,Latency to the first erection,male rats [2]; 8.0 mg/kg,1299 ± 214 s
same,Responders,male rats [2]; 8.0 mg/kg,100%
same,Erections/60 minutes,male rats [2]; 16.0 mg/kg,7.7 ± 0.4* #
same,Latency to the first erection,male rats [2]; 16.0 mg/kg,654 ± 108* sec
same,Responders,male rats [2]; 16.0 mg/kg,100%
same,Erections/60 minutes,male rats [2]; 32.0 mg/kg,2.5 ± 0.2
same,Latency to the first erection,male rats [2]; 32.0 mg/kg,1046 ± 64* sec
same,Responders,male rats [2]; 32.0 mg/kg,100%
same,Erections/60 minutes,male rats [2]; 64.0 mg/kg,2.7 ± 0.5
same,Latency to the first erection,male rats [2]; 64.0 mg/kg,3319 ± 170* sec
same,Responders,male rats [2]; 64.0 mg/kg,100%
same,effect on penile erections (in words),male rats [2]; 60 minutes observation,produced erections in rats in a bell shaped dose-response fashion
same,dose at which the maximal effect on erections was observed,male rats [2]; doses 4.0-64.0 mg/kg,16 mg/kg
same,dose with minimal time to the first erection,male rats [2]; doses 4.0-64.0 mg/kg,16 mg/kg
same,Serum cortisol,male rats [3]; [6],not significantly altered
same,Serum prolactin,male rats [3]; [6],not significantly altered
same,Rearing,"male rats [3]; 16 mg/kg ip, n=15",77±5.9 rears/60 minutes
same,erections,"male rats [3]; 16 mg/kg ip, n=15",5.6±0.7 erections/60 minutes
same,locomotion,"male rats [3]; 16 mg/kg ip, n=15",20.7±3.3 moves
same,non-penile grooming,"male rats [3]; 16 mg/kg ip, n=15",22±4.8 grooms/60 minutes
same,penile grooming,"male rats [3]; 16 mg/kg ip, n=15",12.1±3.3 grooms/60 minutes
same,ejaculations,"male rats [3]; 16 mg/kg ip, n=15, 60 minute observation",1.8±0.1 ejaculations
same,Rectal temperature,"male rats [3]; 16 mg/kg, before and 1 hour after drug administration",not significantly altered
same,erections with XVIb without antagonist (pindolol comparison),male rats [4],7.8±1.4 erections/60 minutes
same,erections with XVIb without antagonist (scopolamine comparison),male rats [4],1.7 erections/60 minutes
same,number of intromissions (in words),"male rats [5]; 7.5 mg/kg and 30.5 mg/kg only, data is not shown",reducing the number of intromissions
same,Post ejaculatory interval,"male rats [5]; 15 mg/kg ip, n=15",426.6 ± 28.5 s
same,Ejaculation latency,male rats [5]; [7],330.9 ± 31.5 s
same,Intromission latency,male rats [5]; [7],405.1 ± 88.0 s
same,Mount latency,male rats [5]; [7],204.5 ± 31.9 s
same,Intromissions,"male rats [5]; 15 mg/kg ip, n=15, before ejaculation",6.9 ± 0.7
same,ejaculations,"male rats [5]; 15 mg/kg ip, n=15, during 30 minutes of observation",4.7 ± 0.2
same,Post ejaculatory interval (in words),male rats [5]; any of doses tested (1.5-30.5 mg/kg ip),not affected
same,copulatory behaviors (in words),male rats [5]; doses above and below 15 mg/kg,without significant effects
same,# of behavioral Purse Lip Gesture,male primates; 0.1 mg/kg ip,5.8 ± 3.9 #
same,# of behavioral Yawning,male primates; 0.1 mg/kg ip,8.8 ± 4.5 #
same,Grade 0 (glans hidden from view),male primates; 0.1 mg/kg ip,81.8 ± 8.2 % genital observations
same,Grade 1 (glans clearly visible),male primates; 0.1 mg/kg ip,17.8 ± 7.9 % genital observations
same,Grade 2 (penis extended),male primates; 0.1 mg/kg ip,0.4 ± 0.3 % genital observations
same,Grade 3 (full erection),male primates; 0.1 mg/kg ip,0 ± 0 % genital observations
same,Grade 4 (erection with masturbation),male primates; 0.1 mg/kg ip,0 ± 0 % genital observations
same,Grade 5 (erection with masturbation and ejaculation),male primates; 0.1 mg/kg ip,0 ± 0 % genital observations
same,# of behavioral Purse Lip Gesture,male primates; 0.3 mg/kg ip,10.2 ± 3.9 #
same,# of behavioral Yawning,male primates; 0.3 mg/kg ip,11.7 ± 3.8 #
same,Grade 0 (glans hidden from view),male primates; 0.3 mg/kg ip,67.3 ± 12.2 % genital observations
same,Grade 1 (glans clearly visible),male primates; 0.3 mg/kg ip,32.8 ± 11.5 % genital observations
same,Grade 2 (penis extended),male primates; 0.3 mg/kg ip,0.5 ± 0.5 % genital observations
same,Grade 3 (full erection),male primates; 0.3 mg/kg ip,0 ± 0 % genital observations
same,Grade 4 (erection with masturbation),male primates; 0.3 mg/kg ip,0 ± 0 % genital observations
same,Grade 5 (erection with masturbation and ejaculation),male primates; 0.3 mg/kg ip,0 ± 0 % genital observations
same,# of behavioral Purse Lip Gesture,male primates; 1.0 mg/kg ip,7.5 ± 3.4 #
same,# of behavioral Yawning,male primates; 1.0 mg/kg ip,11.3 ± 2.5 #
same,Grade 0 (glans hidden from view),male primates; 1.0 mg/kg ip,72.0 ± 12.0 % genital observations
same,Grade 1 (glans clearly visible),male primates; 1.0 mg/kg ip,26.6 ± 10.6 % genital observations
same,Grade 2 (penis extended),male primates; 1.0 mg/kg ip,1.4 ± 1.4 % genital observations
same,Grade 3 (full erection),male primates; 1.0 mg/kg ip,0 ± 0 % genital observations
same,Grade 4 (erection with masturbation),male primates; 1.0 mg/kg ip,0 ± 0 % genital observations
same,Grade 5 (erection with masturbation and ejaculation),male primates; 1.0 mg/kg ip,0 ± 0 % genital observations
same,# of behavioral Purse Lip Gesture,male primates; 3.0 mg/kg ip,14.0 ± 8.3 #
same,# of behavioral Yawning,male primates; 3.0 mg/kg ip,13 ± 3.4 #
same,Grade 0 (glans hidden from view),male primates; 3.0 mg/kg ip,56.8 ± 7.8 % genital observations
same,Grade 1 (glans clearly visible),male primates; 3.0 mg/kg ip,42.1 ± 8.3 % genital observations
same,Grade 2 (penis extended),male primates; 3.0 mg/kg ip,1.7 ± 1.4 % genital observations
same,Grade 3 (full erection),male primates; 3.0 mg/kg ip,0.3 ± 0.3 % genital observations
same,Grade 4 (erection with masturbation),male primates; 3.0 mg/kg ip,0 ± 0 % genital observations
same,Grade 5 (erection with masturbation and ejaculation),male primates; 3.0 mg/kg ip,0 ± 0 % genital observations
same,# of behavioral Purse Lip Gesture,male primates; 10.0 mg/kg ip,33 ± 14* #
same,# of behavioral Yawning,male primates; 10.0 mg/kg ip,14.0 ± 4.0 #
same,Grade 0 (glans hidden from view),male primates; 10.0 mg/kg ip,24.5 ± 7.6 % genital observations
same,Grade 1 (glans clearly visible),male primates; 10.0 mg/kg ip,72.1 ± 7.7* % genital observations
same,Grade 2 (penis extended),male primates; 10.0 mg/kg ip,2.5 ± 1.0 % genital observations
same,Grade 3 (full erection),male primates; 10.0 mg/kg ip,0.9 ± 0.6 % genital observations
same,Grade 4 (erection with masturbation),male primates; 10.0 mg/kg ip,0 ± 0 % genital observations
same,Grade 5 (erection with masturbation and ejaculation),male primates; 10.0 mg/kg ip,0 ± 0 % genital observations
same,grade 1 penile erections (in words),"male primates; 0.1-10 mg/kg, primates observed in isolation, significance only at the highest dose",dose dependently (0.1-10 mg/kg) increased grade 1 penile erections
same,Advanced grades of penile erection (grades 2-5) (in words),male primates; any dose (0.1-10 mg/kg),not significantly affected at any dose

# Source: patent US6399618B1, “Compositions and methods for modulating sexual activity” (priority 1997, dated 2002)
